Assay results taken from patent US20240391862A1, “(1,4,5-TRISUBSTITUTED-1H-PYRAZOL-3-YL)OXY-2-ALKOXY ALKYL ACIDS AND THEIR DERIVATIVES, THEIR SALTS AND THEIR USE AS HERBICIDAL AGENTS” (Bayer AKtiengesellschaft, priority 2021, published 2024).

Experiments:
ZEAMX = assay: Post-emergence herbicidal effect and crop plant compatibility, greenhouse pot test; type: in vivo, Zea mays; settings: Zea mays, 504 h, one-leaf stage, rated visually after about 3 weeks vs untreated controls
How it was run: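 Visual % activity scored roughly 3 weeks post-spray against untreated plants, where 100% means death and 0% equals control. Plants were treated at the one-leaf stage, 2 to 3 weeks after sowing in sandy loam, at 20 to 320 g/ha.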

TRZAS = assay: as above; type: in vivo, Triticum aestivum; settings: for Post-emergence effect against TRZAS: visual rating about 3 weeks after treatment, crop plant
From the text: • ALOMY: Alopecurus myosuroides SETVI: Setaria viridis • AVEFA: Avena fatua POLCO: Fallopia convolvulus • AMARE: Amaranthus retroflexus ECHCG: Echinochloa crus-galli • LOLRJ: Lolium rigidum STEME: Stellaria media • VERPE: Veronica persica MATIN: Tripleurospermum inodorum • DIGSA: Digitaria sanguinalis ABUTH: Abutylon threophrasti • TRZAS: Triticum aestivum VIOTR: Viola tricolor • BRSNW: Brassica napus ZEAMX: Zea mays • PHBPU: Ipomoea purpurea GLXMA: Glycine max • ORYSA: Oryza sativa HORMU: Hordeum murinum
Seeds of monocotyledonous and dicotyledonous weeds and crop plants are placed in sandy loam in plastic or organic planting pots, covered with soil and cultivated in a greenhouse under controlled growth conditions. 2 to 3 weeks after sowing, the trial plants are treated at the one-leaf stage. The compounds of the invention, formulated in the form of wettable powders (WP) or as emulsion concentrates (EC), are then sprayed onto the green parts of the plants as aqueous suspension or emulsion with addition of 0.5% additive at a water application rate of 600 l/ha (converted). After the test plants have been kept in the greenhouse under optimum growth conditions for about 3 weeks, the activity of the preparations is rated visually in comparison to untreated controls. For example, 100% activity=the plants have died, 0% activity=like control plants.
Tables 20a to 38c below show the effects/crop compatibilities of selected compounds of the general formula (I) on various harmful plants at an application rate corresponding to 20 to 320 g/ha, which were obtained by the trial procedure specified above.

DIGSA = assay: Post-emergence herbicidal effect, greenhouse pot test; type: in vivo, Digitaria sanguinalis; settings: 320 g/ha, visual rating about 3 weeks after treatment
How it was run: (§1)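 Weeds sown in sandy loam, greenhouse-grown 2–3 weeks, then sprayed at one-leaf stage with WP or EC formulations in water plus 0.5% additive at 600 l/ha. Rates 20 to 320 g/ha. Visual rating after about 3 weeks versus untreated controls (100% = plants dead, 0% = like control).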

MATIN = assay: as above; type: in vivo, Tripleurospermum inodorum
How it was run: as §1

SETVI = assay: as above; type: in vivo, Setaria viridis; settings: 320 g/ha
How it was run: as §1

ABUTH = assay: as above; type: in vivo, Abutilon theophrasti; settings: visual rating about 3 weeks after treatment
How it was run: as §1

AVEFA = assay: as above; type: in vivo, Avena fatua; settings: 320 g/ha, visual rating about 3 weeks after treatment
How it was run: as §1

AMARE = assay: as above; type: in vivo, Amaranthus retroflexus; settings: visual rating about 3 weeks after treatment
How it was run: as §1

ECHCG = assay: as above; type: in vivo, Echinochloa crus-galli; settings: for Post-emergence effect against ECHCG: 20 g/ha, visual rating about 3 weeks after treatment
How it was run: as §1

VIOTR = assay: as above; type: in vivo, Viola tricolor
How it was run: as §1

VERPE = assay: as above; type: in vivo, Veronica persica
How it was run: as §1

PHBPU = assay: as above; type: in vivo, Ipomoea purpurea
How it was run: as §1

[1] = 20 g/ha, one-leaf stage, rated visually after about 3 weeks vs untreated controls

Row | Structure (SMILES) | Post-emergence effect against MATIN in % (MATIN; 80 g/ha) [%] | Post-emergence effect against MATIN in % (MATIN; 320 g/ha) [%] | Post-emergence effect against SETVI in % (SETVI) [%] | Post-emergence effect against ABUTH (ABUTH; 80 g/ha) [%] | Post-emergence effect against ABUTH (ABUTH; 320 g/ha) [%] | Post-emergence effect against AVEFA (AVEFA) [%] | Post-emergence effect against AMARE (AMARE; 80 g/ha) [%] | Post-emergence effect against AMARE (AMARE; 320 g/ha) [%] | Post-emergence effect against ECHCG (ECHCG) [%] | Post-emergence effect against ECHCG in % (ECHCG; 80 g/ha) [%] | Post-emergence effect against ECHCG in % (ECHCG; 320 g/ha) [%] | Post-emergence effect at 20 g/ha against TRZAS in % (TRZAS; [1]) [%] | Post-emergence effect against TRZAS (TRZAS; 80 g/ha) [%] | Post-emergence effect against TRZAS (TRZAS; 320 g/ha) [%] | Post-emergence effect against VIOTR in % (VIOTR; 80 g/ha) [%] | Post-emergence effect against VIOTR in % (VIOTR; 320 g/ha) [%] | Post-emergence effect against VERPE in % (VERPE; 80 g/ha) [%] | Post-emergence effect against VERPE in % (VERPE; 320 g/ha) [%] | Post-emergence effect against PHBPU in % (PHBPU; 80 g/ha) [%] | Post-emergence effect against PHBPU in % (PHBPU; 320 g/ha) [%] | further results
1 | CCOC(Oc1nn(-c2ccccc2F)c(-c2ccc(F)nc2)c1Cl)C(=O)O (stereo not drawn) [Example I-52] |  |  |  |  |  |  |  |  |  |  |  |  |  |  |  |  |  |  |  |  | plant injury at 20 g/ha (ZEAMX; 20 g/ha, read-out: Post-emergence effect at 20 g/ha against ZEAMX in %): 0%; plant injury at 80 g/ha (ZEAMX; 80 g/ha, read-out: Post-emergence effect at 80 g/ha against ZEAMX in %): 0%; plant injury at 320 g/ha (ZEAMX; 320 g/ha, read-out: Post-emergence effect at 320 g/ha against ZEAMX in %): 0%; percent crop injury (phytotoxicity) to wheat, post-emergence at 20 g/ha (TRZAS; Triticum aestivum, 504 h, 20 g/ha, one-leaf stage, rated visually after about 3 weeks vs untreated controls, read-out: Post-emergence effect at 20 g/ha against TRZAS in %): 0%
2 | CCOC(=O)C(OC)Oc1nn(-c2cccc(C)c2F)c(-c2ccc(F)nc2)c1Br (stereo not drawn) [Example I-94] | 80 | 90 | 90 | 80 | 90 | 80 | 80 | 90 | 80 | 100 | 100 | 0 | 10 | 20 | 80 | 90 | 80 | 90 | 90 | 90 | Post-emergence effect against DIGSA (DIGSA): 80%; Post-emergence effect against PHBPU in % (PHBPU; 20 g/ha): 80%
3 | COC(=O)CCOC(=O)C(OC)Oc1nn(-c2cccc(C)c2F)c(-c2ccc(F)nc2)c1Br (stereo not drawn) [Example I-95] | 80 | 80 | 90 | 80 | 90 |  | 80 | 90 | 80 | 90 | 100 | 0 | 0 | 0 | 80 | 90 | 80 | 90 | 90 | 90 | 
4 | COC(=O)C(OC)Oc1nn(-c2cccc(C)c2F)c(-c2ccnc(F)c2)c1Br (stereo not drawn) [Example I-115] |  |  | 90 |  | 80 | 80 |  |  |  |  | 90 | 0 | 10 | 20 |  |  |  | 80 |  | 80 | 
